pIC50: −log10 of the molar value. Some results are limits rather than exact numbers.

IC50 data for 14 compounds are collected here from ChEMBL document CHEMBL3301550, “MMV Mararia Box screening against P. falciparum asexual stage parasites under hypoxia and bicarbonate modified culture conditions”.

Holding throughout (format): functional, organism-based
Common to all, as to conditions: 3D7

Test [1] relates to Plasmodium falciparum. Kind of test: MMV: Modified 3H-Hyoxanthine uptake assay; 1% O2, 5% CO2 in N2.
Test [2] has as its system Plasmodium falciparum. Description: MMV: 3H-Hyoxanthine uptake assay; 5% O2, 5% CO2 in N2.
In test [3] the test system is Plasmodium falciparum. Kind of test: MMV: 3H-Hyoxanthine uptake assay; RPMI 1640 (Invitrogen cat#11875-093) with Sodium Bicarbonate (NaHCO3) […].
Test [4] concerns Plasmodium falciparum. Description: MMV: Modified 3H-Hyoxanthine uptake assay; RPMI 1640 (Invitrogen cat#23400-013) without Sodium Bicarbonate (NaHCO3).

As to `COc1ccc(NC(=O)C2c3ccccc3C(=O)N(CC(C)C)C2c2cccs2)cc1` (stereo unspecified), the negative logarithm of the IC50 (pIC50) (in general, the IC50 on a negative log10 scale, so that one unit is a factor of ten) in the test with Plasmodium falciparum [1] is 6.68; in the test with Plasmodium falciparum [2], 6.46; in the test on Plasmodium falciparum [3] it was 6.58; with Plasmodium falciparum [4], 6.43.

As to `COc1cc(OC)c(N(C)C(=O)c2cc3c(s2)-c2ccccc2S(=O)(=O)C3)cc1Cl`, the pIC50 in the test on Plasmodium falciparum [1], in the test on Plasmodium falciparum [2], with Plasmodium falciparum [3] and with Plasmodium falciparum [4] was below 6.30 in each case.

On to `CCc1ccc(Nc2cc(C)c3ccc(O)cc3n2)cc1`, for which the pIC50 in the test with Plasmodium falciparum [1] was 6.82; in the test on Plasmodium falciparum [2] it was 6.78; in the test on Plasmodium falciparum [3], 6.77; in the test on Plasmodium falciparum [4], 6.90.

`c1ccc2cc3c(Nc4ccc(N5CCOCC5)cc4)ccnc3cc2c1`: the pIC50 in the test on Plasmodium falciparum [1] was below 6.00; with Plasmodium falciparum [2] it was below 6.00; with Plasmodium falciparum [3], 5.84; in the test on Plasmodium falciparum [4], below 6.00.

Take `COc1ccc(C2=C(c3ccc(OC)cc3)C3(c4ccccc4)C(=O)C2(c2ccccc2)C2C(=O)N(c4ccc(C)cc4)C(=O)C23)cc1` (stereo unspecified): the pIC50 with Plasmodium falciparum [1], in the test with Plasmodium falciparum [2], with Plasmodium falciparum [3] and in the test with Plasmodium falciparum [4] was below 6.00 each time.

With `Cc1cc(NC(=O)C2c3ccccc3C(=O)N(CC(C)C)C2c2cccs2)no1` (stereo unspecified), the pIC50 was 6.74 in the test on Plasmodium falciparum [1], 6.52 in the test on Plasmodium falciparum [2], 6.67 in the test on Plasmodium falciparum [3] and 6.41 in the test on Plasmodium falciparum [4].

Take `CN(C)CCCNc1c2ccccc2nc2ccccc12`: the pIC50 was 7.23 with Plasmodium falciparum [1], 6.44 in the test on Plasmodium falciparum [2], 6.72 with Plasmodium falciparum [3] and 6.23 in the test with Plasmodium falciparum [4].

With `Cc1ccc(N2C3c4ccccc4N(S(=O)(=O)c4ccc(C)cc4)C2c2ccccc2N3S(=O)(=O)c2ccc(C)cc2)cc1`, the pIC50 in the test on Plasmodium falciparum [1], in the test on Plasmodium falciparum [2], with Plasmodium falciparum [3] and with Plasmodium falciparum [4] was below 6.30 each time.

Take `CSC1=NC(=Nc2c(C)cccc2C)C2(CCC(C(C)(C)C)CC2)N1c1ccc(Cl)cc1` (stereo unspecified): the negative-log IC50 (pIC50) in the test with Plasmodium falciparum [1], in the test with Plasmodium falciparum [2], in the test on Plasmodium falciparum [3] and with Plasmodium falciparum [4] was below 6.00 in each case.

Turning to `Cc1ccc(Nc2nc(-c3ccccn3)cs2)cc1`, the pIC50 with Plasmodium falciparum [1], with Plasmodium falciparum [2], with Plasmodium falciparum [3] and in the test with Plasmodium falciparum [4] was below 6.00 throughout.

For `CCCc1c(CC)c(=N)c2ccccc2n1C`, the pIC50 is 7.19 in the test on Plasmodium falciparum [1], 6.40 in the test on Plasmodium falciparum [2], 6.68 in the test with Plasmodium falciparum [3] and 6.45 in the test on Plasmodium falciparum [4].

Turning to `Cc1ccc(-c2cc3c(SCC(=O)Nc4cc(C(F)(F)F)ccc4Cl)nccn3n2)cc1`, the pIC50 in the test with Plasmodium falciparum [1], in the test on Plasmodium falciparum [2], with Plasmodium falciparum [3] and in the test with Plasmodium falciparum [4] was below 6.30 in each case.

`Fc1ccc2[nH]c3c(NCCCN4CCOCC4)ncnc3c2c1`: the pIC50 in the test with Plasmodium falciparum [1], in the test on Plasmodium falciparum [2], with Plasmodium falciparum [3] and in the test on Plasmodium falciparum [4] was below 6.00 in each case.

Regarding `CCOc1cc2c(cc1OCC)C(c1cc(OC)c(O)cc1Cl)NCC2` (stereo unspecified), the negative logarithm of the IC50 (pIC50) in the test with Plasmodium falciparum [1] was 6.25; in the test on Plasmodium falciparum [2], 6.43; with Plasmodium falciparum [3], 6.13; in the test with Plasmodium falciparum [4] it was 6.01.
